Assay results as given in US20140005276A1, “COMPOSITIONS COMPRISING SUBSTITUTED PHENOLS AND TOPICAL APPLICATION THEREOF” (priority 2012, published 2014).

Experiments:
Collagenase = Collagenase inhibition, EnzCheck assay; type: biochemical
Description: Collagenase inhibition was measured using EnzCheck® assay (Molecular Probes, Eugene, Oreg.) according to the manufacturer's instructions. Test materials were evaluated over a wide range of concentrations. Fluorescence was measured after 2-3 hours using a microplate reader set with the wavelength combination 485/530 nm

NF-kB = assay: NF-κB INHIBITION TEST (NF-kB luciferase reporter, TNFα-stimulated H9c2 cells); type: cell-based, Rat
Description: The NF-κB INHIBITION TEST was conducted as follows. Rat cardiac myoblasts H9c2 cells were purchased from ATCC (Manassas, Va.). Cultures were maintained in Dulbecco's modified Eagle's medium (DMEM, Invitrogen Life Technologies, Carlsbad, Calif.) supplemented with 10% fetal bovine serum, 100 units/ml penicillin, and 50 ug/ml streptomycin (Invitrogen life technologies, Carlsbad, Calif.). 1×10^4 cells grown in 96-well plates were transiently transfected with 0.45 ug total DNA per well using Lipofectamine 2000 (Invitrogen life technologies, Carlsbad, Calif.). In all transfections, a construct with the thymidine kinase promoter and the Renilla luciferase reporter gene (pRL-TK, Promega, Madison Wis.) was included as an internal control in addition to the NF-kB luciferase promoter. One day after transfection, cells were treated with the indicated samples (in DMSO as vehicle) at indicated concentrations and stimulated with 100 ng/mL of Tumor Necrosis Factor-α (TNFα, Sigma-Aldrich, St Louis, Mo.) for approximately 24 hours before they were lysed for luciferase assays, using Dual-Luciferase Reporter System from Promega (Madison, Wis.), following manufacturer's protocol. Briefly, the firefly luciferase activity was measured first (representing NF-kB promoter activity), followed by the renilla luciferase (internal control), using luminometer LMAX, from Molecular Devices (Sunnyvale, Calif.). The ratio of these two luciferase activities (RLU) was used to evaluate the activity of each promoter:
NF-κB Inhibition=[1−(RLUsample/RLUcontrol)]*100
where RLUsample and RLUcontrol are the normalized luciferase activity ratios of the sample and control, respectively.
Percent NF-kB Inhibition is also reported.

[1] = 0.0001% by weight of alkylphenol
[2] = 0.001% by weight of alkylphenol
[3] = 10 ug/mL, TNFα 100 ng/ml stimulated H9c2 cells

Structure (SMILES)	Percent Inhibition of Collagenase (Collagenase; [1]) [%]	Percent Inhibition of Collagenase (Collagenase; [2]) [%]	Percent Inhibition of Collagenase (Collagenase; 0.01% by weight of alkylphenol) [%]	Percent Inhibition of Collagenase (Collagenase; 0.1% by weight of alkylphenol) [%]	Percent Inhibition of Collagenase (Collagenase; 1% by weight of alkylphenol) [%]	Percent NF-kB Inhibition relative to vehicle (NF-kB; [3])	Percent NF-kB Inhibition relative to vehicle (NF-kB; 0.2 ug/ml, vehicle 0.1% DMSO) [%]	Percent NF-kB Inhibition relative to vehicle (NF-kB; 0.5 ug/ml, vehicle 0.1% DMSO) [%]	Percent NF-kB Inhibition relative to vehicle (NF-kB; 1 ug/ml, vehicle 0.1% DMSO) [%]	Percent NF-kB Inhibition relative to vehicle (NF-kB; 2 ug/ml, vehicle 0.1% DMSO) [%]	Percent NF-kB Inhibition relative to vehicle (NF-kB; 4 ug/ml, vehicle 0.1% DMSO) [%]	Percent NF-kB Inhibition relative to vehicle (NF-kB; 25 ug/mL, TNFα 100 ng/ml stimulated H9c2 cells)
CCCCCCc1ccc(O)cc1 [4-hexylphenol]	19.57	16.90	27.67	28.82	46.13							
CCCCCc1ccc(O)cc1 [4-amylphenol]	29.42	29.30	34.19	44.66	53.33	54.2%						
Oc1ccc(/C=C/c2cc(O)cc(/C=C/c3ccc(O)cc3)c2)cc1 [1-hydroxyl 3,5-bis(4′hydroxylstyryl)benzene]							0.5	22.1	51.7	71.0	96.1	
CCCc1ccc(O)cc1 [4-propylphenol, reference compound]						(−49.2%)						(−59.1%)
CCCCc1ccc(O)cc1 [4-butylphenol]	26.55	23.16	26.81	54.38	59.51							
